Reference: ChEMBL document CHEMBL4354856, “Discovery of 4,6-O-Thenylidene-β-d-glucopyranoside-(2″-acetamido, 3″-acetyl-di-S-5-fluorobenzothizole/5-fluorobenzoxazole)-4'-demethylepipodophyllotoxin as Potential Less Toxic Antitumor Candidate Drugs by Reducing DNA Damage and Less Inhibition of PI3K” (J Med Chem, 2020)
pIC50: −log10 of the molar value. Activity calls are given as the source filed them. No cut-off for these calls is given here.

Key:
[1] = system: HMEC; assay: Cytotoxicity against human HMEC cells assessed as inhibition of cell proliferation measured after 48 hrs by MTT assay; format: cell-based
[2] = system: MCF7; assay: Anticancer activity against human MCF7 cells assessed as inhibition of cell proliferation measured after 48 hrs by MTT assay; format: functional, cell-based; settings: MCF7, 48 h
[3] = system: MRC5; assay: Cytotoxicity against human MRC5 cells assessed as inhibition of cell proliferation measured after 48 hrs by MTT assay; format: cell-based; settings: MRC5, 48 h
[4] = system: L02; assay: Cytotoxicity against human HL7702 cells assessed as inhibition of cell proliferation measured after 48 hrs by MTT assay; format: cell-based; settings: L02, 48 h
[5] = target: DNA topoisomerase 2-alpha (Homo sapiens) (UniProt P11388); assay: Inhibition of human topoisomerase-2alpha mediated decatenation using kinetoplast DNA as substrate after 30 mins in presence of ATP by ethidium bromide staining-based UV imaging analysis
Sequence of DNA topoisomerase 2-alpha (Homo sapiens) (P11388 whole entry): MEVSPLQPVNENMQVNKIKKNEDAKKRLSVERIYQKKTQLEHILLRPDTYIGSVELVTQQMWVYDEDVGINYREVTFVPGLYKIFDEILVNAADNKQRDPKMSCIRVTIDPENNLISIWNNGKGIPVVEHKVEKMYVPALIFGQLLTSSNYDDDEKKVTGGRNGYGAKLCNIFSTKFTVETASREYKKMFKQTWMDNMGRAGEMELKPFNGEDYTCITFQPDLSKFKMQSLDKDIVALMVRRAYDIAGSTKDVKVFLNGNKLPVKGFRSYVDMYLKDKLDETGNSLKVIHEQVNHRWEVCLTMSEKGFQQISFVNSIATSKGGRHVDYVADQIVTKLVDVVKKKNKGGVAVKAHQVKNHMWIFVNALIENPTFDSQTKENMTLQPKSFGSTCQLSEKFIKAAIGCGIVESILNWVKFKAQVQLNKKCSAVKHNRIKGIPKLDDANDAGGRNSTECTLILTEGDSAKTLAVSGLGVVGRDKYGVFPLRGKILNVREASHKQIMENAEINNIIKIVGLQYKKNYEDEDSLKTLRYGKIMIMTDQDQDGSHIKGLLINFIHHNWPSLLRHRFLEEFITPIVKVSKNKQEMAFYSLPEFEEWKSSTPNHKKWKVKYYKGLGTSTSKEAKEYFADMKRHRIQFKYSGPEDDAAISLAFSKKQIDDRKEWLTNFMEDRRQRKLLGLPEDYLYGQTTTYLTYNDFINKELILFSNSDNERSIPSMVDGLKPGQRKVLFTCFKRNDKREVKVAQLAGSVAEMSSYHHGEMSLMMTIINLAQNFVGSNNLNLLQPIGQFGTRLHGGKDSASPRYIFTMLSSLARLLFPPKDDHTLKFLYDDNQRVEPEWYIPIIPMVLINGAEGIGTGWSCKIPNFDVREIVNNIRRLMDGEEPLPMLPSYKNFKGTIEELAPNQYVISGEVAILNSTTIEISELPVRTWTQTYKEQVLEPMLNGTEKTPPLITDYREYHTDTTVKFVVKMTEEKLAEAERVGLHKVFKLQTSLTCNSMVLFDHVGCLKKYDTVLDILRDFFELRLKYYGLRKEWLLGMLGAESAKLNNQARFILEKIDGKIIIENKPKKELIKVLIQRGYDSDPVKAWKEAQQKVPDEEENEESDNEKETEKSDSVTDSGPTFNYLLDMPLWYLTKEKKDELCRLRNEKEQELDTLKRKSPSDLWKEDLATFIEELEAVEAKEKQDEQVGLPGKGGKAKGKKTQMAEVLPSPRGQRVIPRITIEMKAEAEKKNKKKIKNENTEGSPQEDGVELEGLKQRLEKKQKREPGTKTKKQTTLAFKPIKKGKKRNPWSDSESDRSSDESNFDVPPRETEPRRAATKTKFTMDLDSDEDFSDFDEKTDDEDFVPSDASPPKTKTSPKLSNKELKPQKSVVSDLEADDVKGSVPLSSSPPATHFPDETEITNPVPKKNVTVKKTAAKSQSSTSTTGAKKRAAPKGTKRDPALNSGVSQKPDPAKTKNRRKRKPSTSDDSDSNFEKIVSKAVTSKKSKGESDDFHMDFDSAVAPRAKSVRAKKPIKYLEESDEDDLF

[6] = target: DNA topoisomerase 2-alpha (Homo sapiens) (UniProt P11388); assay: Inhibition of human topoisomerase-2alpha mediated decatenation at 50 uM using kinetoplast DNA as substrate after 30 mins in presence of ATP by ethidium bromide staining-based UV imaging analysis relative to control
[7] = system: HepG2; assay: Anticancer activity against human HepG2 cells assessed as inhibition of cell proliferation measured after 48 hrs by MTT assay; format: functional, cell-based; settings: HepG2, 48 h
[8] = system: A549; assay: Anticancer activity against human A549 cells assessed as inhibition of cell proliferation measured after 48 hrs by MTT assay; format: functional, cell-based; settings: A549, 48 h
[9] = system: HeLa; assay: Anticancer activity against human HeLa cells assessed as inhibition of cell proliferation measured after 48 hrs by MTT assay; format: functional, cell-based
[10] = Cytotoxicity against human H8 cells assessed as inhibition of cell proliferation measured after 48 hrs by MTT assay; format: cell-based
[11] = system: HepG2; assay: Cell cycle arrest in human HepG2 cells assessed as accumulation at G2/M phase at 5 uM after 24 hrs by propidium staining based flow cytometry analysis; format: functional
[12] = system: HepG2; assay: Cell cycle arrest in human HepG2 cells assessed as accumulation at G2/M phase at 15 uM after 36 hrs by propidium staining based flow cytometry analysis relative to control; format: functional
[13] = system: L02; assay: Cell cycle arrest in human HL7702 cells assessed as accumulation at G2/M phase at 5 uM after 30 hrs by propidium staining based flow cytometry analysis relative to control; settings: l02, 30 h
[14] = system: HepG2; assay: Induction of apoptosis in human HepG2 cells assessed as apoptotic cells at 5 to 15 uM measured after 36 hrs by Annexin-V/propidium iodide staining based flow cytometry analysis relative to control; format: functional
[15] = system: HepG2; assay: Induction of apoptosis in human HepG2 cells assessed as apoptotic cells at 10 uM measured after 42 hrs by Annexin-V/propidium iodide staining based flow cytometry analysis relative to control; format: functional
[16] = system: L02; assay: Induction of apoptosis in human HL7702 cells assessed as apoptotic cells at 50 uM measured after 42 hrs by Annexin-V/propidium iodide staining based flow cytometry analysis relative to control; format: cell-based; settings: l02, 42 h
[17] = Acute toxicity in C57BL6 mouse assessed as effect on body weight at 100 mg/kg, ip administered for 20 days; format: organism-based; settings: in vivo, 480 h
[18] = Acute toxicity in ip dosed C57BL6 mouse assessed as mouse survival administered as single dose for 3 days and monitored for 20 days by Bliss method; format: organism-based; settings: in vivo
[19] = Acute toxicity in C57BL6 mouse assessed as effect on heart at 30 mg/kg, ip administered for 20 days and measured after 20 days by hematoxylin and eosin staining based assay; format: organism-based; settings: in vivo, 480 h
[20] = Acute toxicity in C57BL6 mouse assessed as effect on liver at 30 mg/kg, ip administered for 20 days and measured after 20 days by hematoxylin and eosin staining based assay; format: organism-based; settings: in vivo, 480 h
[21] = Acute toxicity in C57BL6 mouse assessed as effect on lung at 30 mg/kg, ip administered for 20 days and measured after 20 days by hematoxylin and eosin staining based assay; format: organism-based; settings: in vivo, 480 h
[22] = Acute toxicity in C57BL6 mouse assessed as effect on kidney at 30 mg/kg, ip administered for 20 days and measured after 20 days by hematoxylin and eosin staining based assay; format: organism-based; settings: in vivo, 480 h
[23] = system: HepG2; assay: Antitumor activity against human HepG2 xenografted in ip dosed BALB/c nude mouse administered for 20 days and measured after 20 days by electronic caliper method; format: functional; settings: 480 h
[24] = system: HepG2; assay: Antitumor activity against human HepG2 xenografted in BALB/c nude mouse assessed as tumor volume at 30 mg/kg, ip administered for 20 days and measured after 20 days by electronic caliper method (reference value: 960.20 +/- 32.10 mm3); format: functional
[25] = system: HepG2; assay: Antitumor activity against human HepG2 xenografted in BALB/c nude mouse assessed as tumor growth inhibition at 30 mg/kg, ip administered for 20 days and measured after 20 days by electronic caliper method relative to control; format: functional; settings: 480 h, read-out: TGI
[26] = Therapeutic index, ratio of LD50 for acute toxicity in ip dosed C57BL6 mouse assessed as mouse survival administered as single dose for 3 days and monitored for 20 days by Bliss method to ED50 for antitumor activity against human HepG2 xenografted in ip dosed BALB/c nude mouse administered for 20 days and measured after 20 days by electronic caliper method; format: organism-based; settings: in vivo, read-out: TI
[27] = target: DNA topoisomerase 2-alpha (Homo sapiens) (UniProt P11388); assay: Inhibition of human topoisomerase-2alpha mediated decatenation at 25 uM using kinetoplast DNA as substrate after 30 mins in presence of ATP by ethidium bromide staining-based UV imaging analysis
[28] = target: T1, DNA topoisomerase II (Homo sapiens, UniProt P11388+Q02880); assay: Poison activity at topoisomerase-2 in human HepG2 cell lysate assessed as topoisomerase-2 band depletion after 3 hrs by Western blot analysis; format: subcellular
[29] = target: T1, DNA topoisomerase II; assay: Poison activity at topoisomerase-2 in human HL7702 cell lysate assessed as reduction in topoisomerase-2 band depletion at 50 uM after 3 hrs by Western blot analysis; format: ADME, subcellular
[30] = system: HepG2; assay: Induction of DNA damage in human HepG2 cells assessed as increase in H2AX phosphorylation at 20 uM after 24 hrs by Alexa Fluor 488 staining based fluorescence assay; format: functional, cell-based
[31] = system: L02; assay: Genotoxicity in human HL7702 cells assessed as induction of DNA damage by measuring tail DNA at 50 uM after 24 hrs by alkaline comet assay (reference value: 3 +/- 1.1 %); format: toxicity, cell-based; settings: l02, 24 h
[32] = system: L02; assay: Induction of DNA damage in human HL7702 cells assessed as effect on gamma-H2AX phosphorylation at 20 uM after 24 hrs by Alexa Fluor 488 staining based fluorescence assay; format: cell-based; settings: l02, 24 h
[33] = system: L02; assay: Genotoxicity in human HL7702 cells assessed as induction of DNA damage at 50 uM after 24 hrs in combination of teniposide by alkaline comet assay; format: toxicity, cell-based; settings: l02, 24 h
[34] = system: L02; assay: Cytotoxicity against human HL7702 cells assessed as inhibition of cell proliferation measured after 48 hrs by MTT assay relative to teniposide; format: cell-based; settings: l02, 48 h
[35] = system: MRC5; assay: Cytotoxicity against human MRC5 cells assessed as inhibition of cell proliferation measured after 48 hrs by MTT assay relative to teniposide; format: cell-based; settings: mrc5, 48 h
[36] = system: HMEC; assay: Cytotoxicity against human HMEC cells assessed as inhibition of cell proliferation measured after 48 hrs by MTT assay relative to teniposide; format: cell-based
[37] = species on record: Homo sapiens; assay: Induction of PI3K/AKT phosphorylation in human HL7702 cells at 25 uM after 30 hrs by Western blot analysis; format: cell-based
[38] = system: L02; assay: Induction of apoptosis in human HL7702 cells assessed as increase in BAX level at 25 uM after 30 hrs by Western blot analysis; format: cell-based; settings: l02, 30 h
[39] = system: L02; assay: Induction of apoptosis in human HL7702 cells assessed as increase in PARP cleavage at 25 uM after 30 hrs by Western blot analysis; format: cell-based; settings: l02, 30 h
[40] = system: HepG2; assay: Cell cycle arrest in human HepG2 cells assessed as accumulation at G2/M phase at 5 uM after 24 hrs by propidium staining based flow cytometry analysis relative to control; format: functional
[41] = system: HepG2; assay: Cell cycle arrest in human HepG2 cells assessed as accumulation at G2/M phase at 20 uM after 36 hrs by propidium staining based flow cytometry analysis relative to control; format: functional
[42] = system: L02; assay: Cell cycle arrest in human HL7702 cells assessed as accumulation at G2/M phase at 50 uM after 42 hrs by propidium staining based flow cytometry analysis relative to control; settings: l02, 42 h
[43] = system: L02; assay: Cell cycle arrest in human HL7702 cells assessed as accumulation at G2/M phase at 5 uM after 30 hrs by propidium staining based flow cytometry analysis; settings: l02, 30 h
[44] = system: HepG2; assay: Induction of apoptosis in human HepG2 cells assessed as apoptotic cells at 20 uM measured after 42 hrs by Annexin-V/propidium iodide staining based flow cytometry analysis relative to control; format: functional
[45] = Acute toxicity in C57BL6 mouse assessed as lethality at 100 mg/kg, ip administered for 4 days; format: organism-based; settings: in vivo, 96 h
[46] = system: L02; assay: Genotoxicity in human HL7702 cells assessed as induction of DNA damage at 50 uM after 24 hrs by alkaline comet assay; format: toxicity, cell-based; settings: l02, 24 h

SMILES | pIC50 [1] | pIC50 [2] | pIC50 [3] | pIC50 [4] | pIC50 [7] | pIC50 [8] | pIC50 [9] | pIC50 [10] | Activity [16] | LD50 at 480 h [18] | ED50 [23] | Activity [24] | inhibition in vivo at 30 mg/kg [25] | inhibition [27] | IC50 [28] | Activity [31] | Activity [32] | Activity [37] | Activity [38] | Activity [39] | other results
COc1cc([C@@H]2c3cc4c(cc3[C@@H](O[C@@H]3O[C@@H]5CO[C@@H](c6cccs6)O[C@H]5[C@H](OC(=O)CSc5nc6cc(F)ccc6s5)[C@H]3NC(=O)CSc3nc5cc(F)ccc5s3)[C@H]3COC(=O)[C@H]23)OCO4)cc(OC)c1O | 3.91 | 4.97 | 3.91 | 3.92 | 4.99 | 4.90 | 3.82 | 3.92 | 30% | 208 mg/kg | 32.6 mg/kg | 446.35 mm3 | 73% | Active | 116.5 µM | 7.2% | Toxic | Active | Non-Toxic | Non-Toxic | inhibition [5]: Dose-dependent effect; inhibition [6]: 100%; Activity [11]: inactive; Activity [12]: 78%; Activity [13]: 40%; Activity [14]: 30 - 55%; Activity [15]: 55%; Activity [17]: Non-Toxic; Activity [19]: Non-Toxic; Activity [20]: Non-Toxic; Activity [21]: Non-Toxic; Activity [22]: Non-Toxic; selectivity ratio at 20 days [26]: 6.39; Activity [29]: Not Active; Activity [30]: Active; Activity [33]: Toxic; fold change (FC) [34]: 10; fold change (FC) [35]: 10; fold change (FC) [36]: 10
COc1cc([C@@H]2c3cc4c(cc3[C@@H](O[C@@H]3O[C@@H]5CO[C@@H](c6cccs6)O[C@H]5[C@H](O)[C@H]3O)[C@H]3COC(=O)[C@H]23)OCO4)cc(OC)c1O [TENIPOSIDE] | 4.91 | 4.95 | 4.91 | 4.94 | 5.37 | 5.09 | 4.83 | 4.65 | 88% | 46.1 mg/kg | 40.5 mg/kg | 259.15 mm3 | 48% | Active | 62.7 µM | 98.3% | Toxic | inactive | Toxic | Toxic | Activity [40]: >20%; Activity [41]: 86%; Activity [42]: 84%; Activity [43]: Toxic; Activity [44]: 71%; Activity [45]: Toxic; Activity [46]: Toxic
